# Measurements from patent US20070269451A1, “Nucleic Acid Vaccination” (priority 1999, published 2007).
# “Also recorded” adds a separate entry of the source.
# How the values were obtained:
# anti-MUC1 antibody ATR1 = experiment: ELISA binding of anti-MUC1 antibody ATR1 to synthetic MUC1 VNTR peptides; set-up: key: +++ indicates strong binding; ++ indicates fair binding; + indicates weak binding; − indicates no significant binding; conditions: peptide coated 50 μg/ml to 25 ng/ml; semiquantitative scale; absorbance at 490 nm
# Description: (§1) Synthetic peptides were designed containing mutations at the glycosylation sites. Particular attention was focused on substitutions at the threonine residue in this sequence (T11). Table 1 below indicates the peptides that were designed and their mutated glycosylation sites. Peptides containing two identical copies of the designed VNTR were synthesised at Genemed Synthesis Inc (San Francisco, Calif.). These peptides were then screened for their ability to bind to a number of anti-MUC1 monoclonal antibodies in an ELISA.
# (§2) Peptides were prepared as aqueous solutions in 50 mM sodium bicarbonate buffer pH9.6 and coated onto Nunc Maxisorp plates at 4° C. overnight at a range of concentrations between 50 μg/ml and 25 ng/ml. After extensive washing with TBS-Tween (Tris-buffered saline, pH7.4 containing 0.05% Tween20), the plates were blocked with blocking solution (3% w/v bovine serum albumin in TBS-Tween) for 2 hours at room temperature. Anti-MUC1 antibodies HMFG1 (Novocastra, Newcastle, UK), HMFG2 (Novocastra), SM3 (Girling et al, 1989, Int J Cancer 43:1072-1076) and ATR1 (Bynum et al, 1995, Hybridoma 14:587-591) were diluted in blocking solution, added to the plate and incubated at room temperature for one hour. After washing, bound antibody was labelled by incubation with HRP-conjugated anti-mouse IgG (P260, Dako, Denmark) at 1/2000 dilution in blocking buffer. The plate was washed again and bound conjugate detected using Fast OPD colour reagents (Sigma, Poole, UK). The reaction was stopped by the addition of 3M sulphuric acid, and the OPD product quantitated by measuring the absorbance at 490 nm.
# (§3) The ELISA signal for each antibody and peptide combination is ranked according to a semiquantitative scale, where +++ indicates strong binding, ++ indicates fair binding, + indicates weak binding, and − indicates no significant binding.
# antibody SM3 = experiment: Antibody binding curve for the mutant polypeptides (SM3 ELISA, FIG. 4); conditions: peptide coated at 3 ug/ml
# Method: as §2
# The polypeptides described in table 1 above were again used in this experiment. The methodology was essentially similar to Example 1 except that peptides were coated onto an ELISA plate at a fixed concentration of 3 ug/ml, and different concentrations of antibody SM3 were applied.
# anti-MUC1 antibody SM3 = experiment: ELISA binding of anti-MUC1 antibody SM3 to synthetic MUC1 VNTR peptides; set-up: key to ELISA signal, Antibody SM3: +++ indicates strong binding; ++ indicates fair binding; + indicates weak binding; − indicates no significant binding; conditions: for binding for the SM3 antibody (in words): Table 2; for ELISA signal, Antibody SM3: peptide coated 50 μg/ml to 25 ng/ml, semiquantitative scale, absorbance at 490 nm
# Description: as §1, §2, §3
# anti-MUC1 antibody HMFG2 = experiment: ELISA binding of anti-MUC1 antibody HMFG2 to synthetic MUC1 VNTR peptides; set-up: key: +++ indicates strong binding; ++ indicates fair binding; + indicates weak binding; − indicates no significant binding; conditions: peptide coated 50 μg/ml to 25 ng/ml; semiquantitative scale; absorbance at 490 nm
# Description: as §1, §2, §3
# anti-MUC1 antibody HMFG1 = experiment: ELISA binding of anti-MUC1 antibody HMFG1 to synthetic MUC1 VNTR peptides; set-up: key: +++ indicates strong binding; ++ indicates fair binding; + indicates weak binding; − indicates no significant binding; conditions: peptide coated 50 μg/ml to 25 ng/ml; semiquantitative scale; absorbance at 490 nm
# Description: as §1, §2, §3
# [1] = different concentrations of SM3
Substance,"ELISA signal, Antibody ATR1 (anti-MUC1 antibody ATR1)",SM3 antibody binding pattern / affinity across a range of antibody concentrations (antibody SM3; [1]),binding for the SM3 antibody (in words) (anti-MUC1 antibody SM3),"ELISA signal, Antibody SM3 (anti-MUC1 antibody SM3)","ELISA signal, Antibody HMFG2 (anti-MUC1 antibody HMFG2)","ELISA signal, Antibody HMFG1 (anti-MUC1 antibody HMFG1)","SM3 antibody binding pattern / affinity across a range of antibody concentrations (antibody SM3; different concentrations of SM3, listed as Mut 5A)"
Ac-(PAHGVVAAPDIRPAPGAVAP)2-NH2 [Mut5I],++,does little to reduce the affinity,maintain binding,+++,+++,++,
Ac-(PAHGVVAAPDWRPAPGAVAP)2-NH2 [Mut5W],++,,,−,−,−,
Ac-(PAHGVVAAPDTRPAPGAVAP)2-NH2 [Mut4],+++,,,+++,+++,++,
Ac-(PAHGVVAAPDARPAPGAVAP)2-NH2 [Mut5A],+++,essentially the same as those shown for Mut5W,,−,−,++,substantially the same results as those shown for Mut5W
Ac-(PAHGVVAAPDNRPAPGAVAP)2-NH2 [Mut5N],+++,substantially the same results as those shown for Mut5W; also recorded: essentially the same as those shown for Mut5W,,−,−,−,
Ac-(PAHGVVAAPDVRPAPGAVAP)2-NH2 [Mut5V],+++,does little to reduce the affinity,maintain binding,+++,+++,−,
Ac-(PAHGVVAAPDPRPAPGAVAP)2-NH2 [Mut5P],+,substantially the same results as those shown for Mut5W; also recorded: essentially the same as those shown for Mut5W,,−,−,+,
